# From patent US5362634A, “Process for producing A83543 compounds” (DowElanco, priority 1991, dated 1994)
# How the values were obtained:
# [1] = test system: SAW (Southern armyworm) larvae; assay: Topical test against SAW larvae; format: in vivo; conditions: Spodoptera eridania
# Procedure: (§1) Each test compound was formulated by dissolving the compound in an acetone/alcohol (1:1) mixture containing 23 g of "Toximul R" (sulfonate/nonionic emulsifier blend) and 13 g of "Toximul S" (sulfonate/nonionic emulsifier blend) per liter. These mixtures were then diluted with water to give the indicated concentrations.
# Additional insects were evaluated using similar formulations and evaluation procedures, with the exceptions noted.
# After standard exposure periods, percent mortality was evaluated. The following abbreviations are used:
# ^a Days between treatment and observation
# ^b Mean of replicates tested
# ^f Treated topically with 1 mL of formulated A83543A
# [2] = test system: SAW (Southern armyworm); assay: Greenhouse test against SAW; format: in vivo; conditions: Spodoptera eridania, squash
# Procedure: as §1
# (§2) Two-spotted spider mites (Tetranychus urticae Koch) and cotton or melon aphids (Aphis gossypii Glover) were introduced on squash cotyledons and allowed to establish on both leaf surfaces. Other plants in the same treatment pot were left uninfested. The leaves were then sprayed with 5 mL of test solution using a DeVilbiss atomizing sprayer at 10 psi. Both surfaces of the leaves were covered until runoff and then allowed to dry for one hour. Two uninfested leaves were then excised and placed into a Petri dish containing Southern armyworm (Spodoptera eridania Cramer).
# (§3) After standard exposure periods, percent mortality was evaluated.
# [3] = test system: SM (twospotted spider mite); assay: Greenhouse test against SM; format: in vivo; conditions: Tetranychus urticae
# Procedure: as §1, §2, §3
# [4] = test system: Spodoptera eridania; assay: Outdoor pot tests against Southern armyworm; format: in vivo
# Source text: Table XV compares the effectiveness and persistence of A83543A treatment with that of methomyl in outdoor pot tests against Southern armyworm.
# [5] = test system: cabbage looper; assay: Field trial, cabbage looper on sprouting broccoli; format: in vivo
# Procedure: A83543A was evaluated in field trials.
# [6] = test system: blow fly larvae (LBF); assay: Guinea pig systemic test, blow fly larvae; format: in vivo
# Procedure: Adult guinea pigs are used in this test system. The compounds to be tested are dissolved in aqueous polyvinyl pyrrolidone or in polyethylene glycol 200, and an appropriate amount of the solution is administered either orally or by intraperitoneal injection.
# Blood is drawn from the guinea pigs at 30 minutes except as noted, and the samples of blood are centrifuged. Dental wicks are saturated with the blood serum, and then exposed in Petri dishes to adult stable flies; blow fly larvae are exposed in test tubes. After 24 and 48 hours, the insects are examined, and the number of dead are counted. The results of the tests are recorded as the percent of the insects which are killed.
# [7] = test system: Nematospiroides dubius; assay: Anthelmintic activity in mice experimentally infected with Nematospiroides dubius; format: in vivo; conditions: single oral gavage at 500 mg/kg
# [8] = test system: Haemonchus contortus; assay: In vitro test against sheep intestinal nematode; conditions: read-out: worms killed
# Source text: In in vitro tests against the sheep intestinal nematode Haemonchus contortus, A83543A killed 30% of the worms at a concentration of 100 ppm.
smiles,measurement,setting,value
CC[C@H]1CCC[C@H](O[C@H]2CC[C@H](N(C)C)[C@@H](C)O2)[C@@H](C)C(=O)C2=C[C@@H]3[C@@H](C=C[C@@H]4C[C@@H](O[C@@H]5O[C@@H](C)[C@H](OC)[C@@H](OC)[C@H]5OC)C[C@@H]34)[C@@H]2CC(=O)O1 [A83543A],inhibition at 1 ppm,"[1]; 24 h, second instar, 1 day",0%
same,inhibition at 5 ppm,"[1]; 24 h, second instar, 1 day",0%
same,inhibition at 10 ppm,"[1]; 24 h, second instar, 1 day",0%
same,inhibition at 50 ppm,"[1]; 24 h, second instar, 1 day",80%
same,inhibition at 100 ppm,"[1]; 24 h, second instar, 1 day",100%
same,inhibition at 10 ppm,"[1]; 48 h, fifth instar, 2 days",0%
same,inhibition at 50 ppm,"[1]; 48 h, fifth instar, 2 days",0%
same,inhibition at 1 ppm,"[1]; 48 h, third instar, 2 days",0%
same,inhibition at 5 ppm,"[1]; 48 h, third instar, 2 days",0%
same,inhibition at 10 ppm,"[1]; 48 h, third instar, 2 days",13.3%
same,inhibition at 50 ppm,"[1]; 48 h, third instar, 2 days",73.3%
same,inhibition at 1 ppm,"[1]; 72 h, neonate, 3 days",0%
same,inhibition at 5 ppm,"[1]; 72 h, neonate, 3 days",60%
same,inhibition at 10 ppm,"[1]; 72 h, neonate, 3 days",100%
same,inhibition at 50 ppm,"[1]; 72 h, neonate, 3 days",100%
same,inhibition at 100 ppm,"[1]; 72 h, neonate, 3 days",100%
same,inhibition at 1.9 ppm,[2]; 1.9 ppm,0%
same,inhibition at 3.9 ppm,[2]; 3.9 ppm,20%
same,inhibition at 7.8 ppm,[2]; 7.8 ppm,20%
same,inhibition at 15.63 ppm,[2]; 15.63 ppm,40%
same,inhibition at 31.25 ppm,[2]; 31.25 ppm,55%
same,inhibition at 62.5 ppm,[2]; 62.5 ppm,100%
same,inhibition at 125 ppm,[2]; 125 ppm,100%
same,inhibition at 250 ppm,[2]; 250 ppm,100%
same,inhibition at 6.25 ppm,"[3]; bushbean, 6.25 ppm",0%
same,inhibition at 12.5 ppm,"[3]; bushbean, 12.5 ppm",10%
same,inhibition at 25 ppm,"[3]; bushbean, 25 ppm",30%
same,inhibition at 50 ppm,"[3]; bushbean, 50 ppm",80%
same,inhibition at 100 ppm,"[3]; bushbean, 100 ppm",100%
same,inhibition at 31.25 ppm,"[3]; squash, 31.25 ppm",0%
same,inhibition at 62.5 ppm,"[3]; squash, 62.5 ppm",20%
same,inhibition at 125 ppm,"[3]; squash, 125 ppm",40%
same,inhibition at 250 ppm,"[3]; squash, 250 ppm",70%
same,mortality at 63 ppm,"[4]; 24 h, 1 day after treatment",100%
same,mortality at 125 ppm,"[4]; 24 h, 1 day after treatment",100%
same,mortality at 250 ppm,"[4]; 24 h, 1 day after treatment",100%
same,mortality at 500 ppm,"[4]; 24 h, 1 day after treatment",100%
same,mortality at 63 ppm,"[4]; 120 h, 5 days after treatment",88%
same,mortality at 125 ppm,"[4]; 120 h, 5 days after treatment",88%
same,mortality at 250 ppm,"[4]; 120 h, 5 days after treatment",95%
same,mortality at 500 ppm,"[4]; 120 h, 5 days after treatment",100%
same,mortality at 63 ppm,"[4]; 168 h, 7 days after treatment",90%
same,mortality at 125 ppm,"[4]; 168 h, 7 days after treatment",95%
same,mortality at 250 ppm,"[4]; 168 h, 7 days after treatment",100%
same,mortality at 500 ppm,"[4]; 168 h, 7 days after treatment",100%
same,mortality at 63 ppm,"[4]; 336 h, 14 days after treatment",5%
same,mortality at 125 ppm,"[4]; 336 h, 14 days after treatment",90%
same,mortality at 250 ppm,"[4]; 336 h, 14 days after treatment",100%
same,mortality at 500 ppm,"[4]; 336 h, 14 days after treatment",100%
same,activity in field trials,[5],showed activity
same,LBF activity (% mortality),"[6]; 10 mg/kg IP, 30 min",0%
same,% Activity LBF,"[6]; 10 mg/kg IP, bled 30 min",0%
same,% Activity LBF,"[6]; 10 mg/kg IP, bled 5 hr",0%
same,% Activity LBF,"[6]; 10 mg/kg IP, bled 24 hr",0%
same,LBF activity (% mortality),"[6]; 20 mg/kg IP, 30 min",0%
same,% Activity LBF,"[6]; 20 mg/kg IP, bled 30 min",0%
same,% Activity LBF,"[6]; 20 mg/kg IP, bled 5 hr",0%
same,% Activity LBF,"[6]; 20 mg/kg IP, bled 24 hr",0%
same,LBF activity (% mortality),[6]; 30 mg/kg IP,90%
same,% Activity LBF,"[6]; 30 mg/kg IP, bled 30 min",90%
same,% Activity LBF,"[6]; 30 mg/kg IP, bled 5 hr",50%
same,% Activity LBF,"[6]; 30 mg/kg IP, bled 24 hr",30%
same,LBF activity (% mortality),"[6]; 50 mg/kg IP, 30 min",100%
same,% Activity LBF,"[6]; 50 mg/kg IP, bled 30 min",100%
same,% Activity LBF,"[6]; 50 mg/kg IP, bled 5 hr",95%
same,% Activity LBF,"[6]; 50 mg/kg IP, bled 24 hr",25%
same,LBF activity (% mortality),"[6]; 50 mg/kg OR (oral), 30 min",100%
same,% Activity LBF,"[6]; 50 mg/kg oral, bled 5 hr",100%
same,% Activity LBF,"[6]; 50 mg/kg oral, bled 24 hr",0%
same,anthelmintic activity,[7],did not show anthelmintic activity
same,killing at 100 ppm,[8],30%
